The source of these data is patent US11492366B2, “Platinum compounds for binding guanine quadruplexes” (QUEEN'S UNIVERSITY AT KINGSTON, priority 2017, dated 2022).

Where only a bound is given, the exact number is not on record here.

In assay [1] the test system is F21RT. Briefly: FRET melting assay, F21RT. The following applies: RNA quadruplex; 0.2 μM binder, 0.1 μM oligonucleotide, K+ buffer (1 mM KCl/99 mM LiCl for RNA); dichloride salts. It counts as binding. From the text:
(§1) All samples tested are guanine quadruplexes except FdxT, which is in duplex form. Binding of G4s by the specified binders of Formula (1) was shown.
(§2) 96-Well plate FRET melting assays were adapted from literature protocols (A. De Rache, J.-L. Mergny, Biochimie (2015),115: 194-202) and conducted using a Strategene Mx3005P real-time PCR apparatus. G4 oligonucleotides labelled with 5′-FAM (6-carboxyfluorescein) and 3′-TAMRA (6-carboxytetramethylrhodamine) fluorophores were folded by rapid annealing in buffer (2 min. at 90° C. followed by cooling in ice). The FAM fluorescent tag was excited at 492 nm and its emission followed at 516 nm while the plates were incubated at 25° C. (5 min.) and then heated (1° C./min) to 95° C. Each condition was repeated in duplicate, and every experiment was repeated at least three times for reproducibility. Final oligonucleotide concentration ([…]) and buffer conditions (10 mM lithium cacodylate, pH 7.2 with either 10 mM potassium chloride/90 mM lithium chloride or 100 mM sodium chloride for DNA, or with 1 mM potassium chloride and 99 mM lithium chloride for RNA) were kept constant. T1/2 values were obtained as the temperature at which the normalized fluorescence emission is 0.5, with ΔT1/2=T1/2 (G4+ binder) — T1/2 (G4). […]

Assay [2] deals with F21T. Briefly: FRET melting assay, F21T. The class given is binding. Particulars: DNA quadruplex; 0.2 μM binder, 0.1 μM oligonucleotide, K+ buffer; dichloride salts.
Source text: as §1, §2

Assay [3] has as its system F21CTAT. The assay is described as follows: FRET melting assay, F21CTAT. It counts as binding. The following applies: DNA quadruplex; 0.2 μM binder, 0.1 μM oligonucleotide, K+ buffer; dichloride salts.
Source text: as §1, §2

Assay [4] relates to FBom17T. The assay is described as follows: FRET melting assay, FBom17T. It counts as binding. Particulars: DNA quadruplex; 0.2 μM binder, 0.1 μM oligonucleotide, K+ buffer; dichloride salts.
Source text: as §1, §2

The test system of assay [5] is FTBAT. Briefly: FRET melting assay, FTBAT. The class given is binding. Particulars: DNA quadruplex; 0.2 μM binder, 0.1 μM oligonucleotide, K+ buffer; dichloride salts.
Source text: as §1, §2

Assay [6] has as its system Fc-mycT. The assay is described as follows: FRET melting assay, Fc-mycT. It counts as binding. Particulars: DNA quadruplex; 0.2 μM binder, 0.1 μM oligonucleotide, K+ buffer; dichloride salts.
Source text: as §1, §2

Assay [7] deals with F25cebT. The assay is described as follows: FRET melting assay, F25cebT. It counts as binding. The following applies: DNA quadruplex; 0.2 μM binder, 0.1 μM oligonucleotide, K+ buffer; dichloride salts.
Source text: as §1, §2

Assay [8] relates to FdxT. The assay is described as follows: FRET melting assay, FdxT duplex. The class given is binding. Particulars: DNA duplex; 0.2 μM binder, 0.1 μM oligonucleotide, K+ buffer; dichloride salts.
Source text: as §1, §2

In assay [9] the test system is 22AG. Briefly: FID titration (thiazole orange displacement) and data fitting. It counts as binding, human. The following applies: K buffer, error 3σ × standard deviation. How it is done:
Specifically, such titrations involve the addition of a binder to a thiazole orange (TO):22AG complex (0.25 or 0.5 μM DNA) in potassium buffer (10 mM lithium cacodylate buffer (pH 7.2) and 100 mM KCl). FIG. 4A provides an example of the blank-, baseline-, and volume-corrected fluorescence spectra obtained from the titration of Pt(2)2 with TO-22AG. […] Previous experiments indicate that the fluorophore binds to the quadruplex in a 1:1 TO:22AG stoichiometry, thus potentially leaving a second binding site unoccupied on the other terminal guanine tetrad of 22AG. […]
FID assays were adapted from literature protocols (Monchaud et al., Biochimie (2008) 90: 1207-23). […] In order to derive binding constants from FID data, fluorescence titrations monitoring the binding of TO to the quadruplex examined were first performed in triplicate. A TO-G4 binding constant was determined by data fitting using the HypSpec2014 software (see below). […]
Experiments were performed in a 1.5 mL cell at 25° C. […] Following a 3 minute equilibrium period after each addition, the fluorescence emission spectrum was recorded (λex=501 nm, λem=510-750 nm, bandwidth 5 nm, step size 1 nm). […]
A blank sample containing only buffer was measured in a 1.5 mL fluorescence cuvette to serve as reference. […]

Assay [10] has as its system guanine quadruplexes. Briefly: FRET melting assays, overall statements. It counts as binding. The following applies: 0.2 μM binder.
Source text: as §1, §2

In assay [11] the test system is 22AG. Briefly: Circular dichroism titration, 22AG. It counts as binding, human. Particulars: for Binder-induced conformational change of 22AG from hybrid to antiparallel (CD): K+ buffer (100 mM KCl), 0-5 equivalents binder. On the procedure: Referring to FIGS. 3A and 3B, representative CD spectra from titrations where binders are added to A) 22AG and B) c-myc in potassium buffer (10 mM lithium cacodylate buffer (pH 7.2) and 100 mM KCl) are provided. Specifically, these graphs show changes in Δ A upon addition of Pt(11)2 (0-5 equivalents). Such experiments were performed for all novel binders of Formula (1) described in Table 1 with the exception of Pt(6)2.
The latter phenomenon is of particular interest in the case of the polymorphic quadruplex 22AG, which can adopt parallel, hybrid, and/or antiparallel topologies. […] The interactions of all novel binders of Formula (1) except Pt(6)2 (see Table 1) with 22AG and c-myc have been confirmed through similar CD titrations. In FIG. 3A, spectral changes such as the appearance of a peak at […] are consistent with a conformational change from a hybrid to an antiparallel 22AG quadruplex (Randazzo et al, Top. Curr. Chem. (2013) 330: 67-86).
500 μL Aliquots of 22AG and c-myc were folded at 3 μM by rapid annealing (2 min. at 90° C. followed by cooling in ice) in 10 mM lithium cacodylate (pH 7.2) and 100 mM potassium chloride. G4 binders were prepared in the same buffer at 37.5 or 75 μM, such that 0.5 equiv. binder was equivalent to 10 or 20 μL additions. Spectra at 0, 0.5, 1.0, 1.5, 2.0, 3.0, and 5.0 equivalents of binder added to G4 were acquired after 15 minutes of equilibration. Each spectrum was collected using a Jasco J-815 spectrometer with the following experimental parameters: wavelength range: 200-500 nm, data pitch: 1 nm, D.I.T.: 0.5 s, scan speed: 100 nm/min, accumulations: 3. Acquired data was then blank-corrected and baseline-corrected. Curves were smoothed by taking the average of the ellipticity data from the preceding 4 wavelengths as well as the current wavelength.

Turning to `C[n+]1cc(NC(=O)c2ccc3ccc4ccc(C(=O)Nc5cc6ccccc6[n+](C)c5)nc4c3n2)cc2ccccc21` [Phen-DC3, reference compound], the “Average Binder-Induced Stabilization of Melting Temperature (ΔT1/2), F21RT” value in [1] was 13.3 °C. For the same molecule, the “Average Binder-Induced Stabilization of Melting Temperature (ΔT1/2), F21T” value in [2] came out at 16.4 °C. Also, the “Average Binder-Induced Stabilization of Melting Temperature (ΔT1/2), F21CTAT” value in assay [3] was 11.7 °C. Besides, the “Average Binder-Induced Stabilization of Melting Temperature (ΔT1/2), FBom17T” value in assay [4] turned out to be 3.2 °C. The “Average Binder-Induced Stabilization of Melting Temperature (ΔT1/2), FTBAT” value in [5] was determined as 6.4 °C. Moreover, in assay [6], the “Average Binder-Induced Stabilization of Melting Temperature (ΔT1/2), Fc-mycT” value turned out to be 11.3 °C. For the same molecule, in assay [7], the “Average Binder-Induced Stabilization of Melting Temperature (ΔT1/2), F25cebT” value is >8.5 °C. Besides, in assay [8], the “Average Binder-Induced Stabilization of Melting Temperature (ΔT1/2), FdxT” value was found to be 0.6 °C. For the same molecule, in [9], the “Average Log(β), 2:1 binder:G4 complex” value came to 16.0 ± 1.3 M^−2.
Take `C#Cc1ccc2[n+](c1)[Pt-2]1([n+]3cc(C#C)ccc3-c3n4ccccc4n[n+]31)[n+]1nc3ccccn3c1-2` [Pt(6)2]: the “Average Binder-Induced Stabilization of Melting Temperature (ΔT1/2), F21RT” value in assay [1] was 4.5 °C. Moreover, the “Average Binder-Induced Stabilization of Melting Temperature (ΔT1/2), F21T” value in assay [2] was found to be 0.9 °C. Besides, the “Average Binder-Induced Stabilization of Melting Temperature (ΔT1/2), F21CTAT” value in [3] was determined as 1.9 °C. In addition, the “Average Binder-Induced Stabilization of Melting Temperature (ΔT1/2), FBom17T” value in assay [4] amounted to 0.7 °C. The “Average Binder-Induced Stabilization of Melting Temperature (ΔT1/2), FTBAT” value in [5] came to 1.8 °C. Moreover, the “Average Binder-Induced Stabilization of Melting Temperature (ΔT1/2), Fc-mycT” value in assay [6] was 0.2 °C. Moreover, the “Average Binder-Induced Stabilization of Melting Temperature (ΔT1/2), F25cebT” value in assay [7] stood at 0.9 °C. Moreover, the “Average Binder-Induced Stabilization of Melting Temperature (ΔT1/2), FdxT” value in assay [8] stood at 0.4 °C. In assay [10], the “Stabilization / binding of guanine quadruplexes (in words)” value was “binding was minimal”.
Take `CC(C)(C)OC(=O)Nc1ccc2n[n+]3c(n2c1)-c1cccc[n+]1[Pt-2]31[n+]2ccccc2-c2n3cc(NC(=O)OC(C)(C)C)ccc3n[n+]21` [Pt(17)2]: the “Binder-induced conformational change of 22AG from hybrid to antiparallel (CD)” value in [11] was “no conformational changes are observed”. For the same molecule, the “Preferentially bound topology of human telomeric 22AG” value in assay [11] (in potassium) is “preferentially bind to a hybrid topology”.
For the molecule `CC(=O)NCC(=O)Nc1ccc2n[n+]3c(n2c1)-c1cccc[n+]1[Pt-2]31[n+]2ccccc2-c2n3cc(NC(=O)CNC(C)=O)ccc3n[n+]21` [Pt(18)2], the “Binder-induced conformational change of 22AG from hybrid to antiparallel (CD)” value in assay [11] is listed as “to a lesser extent”.
Same read-out and setting: under `CC(=O)NCC(=O)NCC(=O)Nc1ccc2n[n+]3c(n2c1)-c1cccc[n+]1[Pt-2]31[n+]2ccccc2-c2n3cc(NC(=O)CNC(=O)CNC(C)=O)ccc3n[n+]21` [Pt(19)2] stands “to a lesser extent”.
